Data set [1] in a line: Absorption coefficient at a wavelength of 365 nm. It counts as physicochemical. The settings on record: at 365 nm. From the text: The absorption coefficient can be determined by the following formula.
α365: absorption coefficient at a wavelength of 365 nm [mL/(g·cm)]
A365: absorbance at a wavelength of 365 nm
c: solution concentration [g/mL]
d: optical path length (of quartz cell) [cm]
In addition, when calculating the absorption coefficient, an absorbance converted from the measurement result of the transmittance may also be used.
T365: light transmittance at a wavelength of 365 nm [%]

Data set [2] is described as follows: Aqueous solubility. It counts as physicochemical. The method, then: From such a viewpoint, the metal corrosion inhibitor preferably has an aqueous solubility at 25° C. of 20 g/L or more, more preferably 50 g/L or more, particularly preferably 100 g/L or more.

Structures are written as SMILES. In brackets after ≈: the same amount, converted by molar mass.

In data set [1], `c1c[nH]nn1` [Example D-1, 1,2,3-triazole] returned an absorption coefficient of 0.3 mL/g/cm. Besides, the aqueous solubility – broadly, how much of the substance goes into solution per volume – in data set [2] is on record as > 1,000 g/L.
The corresponding values for `c1nc[nH]n1` [Example D-2, 1,2,4-triazole] are 0.3 mL/g/cm and > 1,000 g/L.
The corresponding values for `c1ccc2[nH]nnc2c1` [Example D-3, 1,2,3-benzotriazole] are 0.8 mL/g/cm and 20 g/L (≈ 168 mM).
`Sc1nnc(S)s1` [Example D-4, 2,5-dimercapto-1,3,4-thiadiazole, reference compound]: the absorption coefficient in data set [1] was determined as 90 mL/g/cm. The concentration in solution in data set [2] (water, 25 °C) (solubility) was 20 mg/mL (≈ 133 mM).
On to `S=c1[nH]c2ccccc2s1` [Example D-5, mercaptobenzothiazole, reference compound], for which, in data set [1], the absorption coefficient is 65 mL/g/cm. Also, the aqueous solubility in data set [2] is reported as 0.3 g/L (≈ 1.79 mM).
